# Measurements reported in US20100047841A1, “SYNTHESIS OF DESACETOXYTUBULYSIN H AND ANALOGS THEREOF” (University of Pittsburgh-of the Commonwealth System of …, priority 2007, published 2010).
# Where two headings read alike, the source gives them in different places.
# Experiments:
# [1] = system: T98G human glioblastoma cell line; assay: Antiproliferative assay (MTS), GI50 in T98G cells; assay type: cell-based
# Source text: General methods are known for determining the effect of compounds on proliferation of cells. See, e.g., Zhu et al., J. Med. Chem., 2006, 49, 2063-2076. Cells can be selected by one of skill in the art and can be maintained as exponentially growing cultures in a suitable medium (e.g., RPMI 1640 medium) with adjuvents, including FBS, penicillin, and glutamine, provided at levels known to those skilled in this field. For human cancer cells, e.g., human glioblastoma cell line T98G, the cells can be trypsinized and washed prior to formation of a cell suspension in appropriate buffer and plating of the cell suspension. Typical microtiter plate amounts can be 500-2000 cells/well. The cells can be allowed to attach and grow for a defined time period (e.g., 36 hours, 72 hours, 96 hours, or other defined period) before treatment with either vehicle (e.g., dimethylsulfoxide) or test agent (e.g., compound of the invention) followed by an additional defined time period (e.g., 36 hrs, 72 hrs, 96 hrs, and the like). At the end of the additional defined time period, viability of the cells can be determined by any of a variety of methods known in the art, including assays employing MTS (3-(4,5-dimethylthiazol-2-yl)-5-(3-carboxymethoxyphenyl)-2-(4-sulfophenyl)-2H-tetrazolium), as described by -Cory et al., Cancer Commun., 1991, 3, 207-212. […] Replicates are typically assayed to allow determination of appropriate statistical properties as known in the art.
# Compounds of the invention with structures of Formulae Xa, XVb, and XVa were assayed for inhibition of growth of the T98G human glioblastoma cell line (Table II).
# Human glioblastoma T98G cells (American Type Culture Collection, Manassas, Va.) were maintained as exponentially growing cultures in an RPMI 1640 medium with 10% FBS, 1% penicillin and 1% glutamine. The cells were seeded into 96-well plates and allowed to attach and grow for 48 hours. One plate of cells was used for a time zero cell number determination (N=16), and cells in other plates were treated for 72 hours or 96 hours with either DMSO (1% v/v; N=8 for each plate) or a range of concentrations, in quadruplicate, of test agents. Cell number was determined spectrophotometrically at 490 nm minus absorbance at 630 nm after exposure to 3-(4,5-dimethylthiazol-2-yl)-5-(3-carboxymethoxyphenyl)-2-(4-sulfophenyl)-2H-tetrazolium (MTS) and N-methylphenazine methylsulfate. The fifty percent growth inhibitory concentrations (GI50) of test agents were calculated from the spectrophotometrically determined growth of the control cells over the 72- or 96-hour period.
# bovine brain tubulin = assay: Inhibition of GTP-induced tubulin assembly (turbidimetry at 350 nm); assay type: biochemical; conditions: after 20 min at 30° C., 10 μM bovine brain tubulin, 0.8 M monosodium glutamate
# Method: Bovine brain tubulin was isolated to electrophoretic homogeneity from fresh brains via methodology described by Hamel and Lin, Biochemistry 23: 4173-84 (1984). Tubulin (final concentration 10 μM; 1 mg/mL) was preincubated with test agents dissolved in DMSO (4% v/v final concentration) and monosodium glutamate (0.8 M final concentration, pH 6.6) for 15 minutes at 30° C. The reaction mixture was cooled to 0° C., and GTP (0.4 mM final concentration) was added. Reaction mixtures were transferred to cuvettes held at 2.5° C. in a Beckmann DU 7400 multichannel, temperature-controlled (Peltier unit) spectrophotometer, reading absorbance (turbidity) at 350 nm in each cuvette every 15 seconds. Baselines were established and temperature was quickly raised to 30° C. (in approximately 1 minute). After 20 minutes, the temperature was returned to 2.5° C. The turbidity value after 20 minutes at 30° C. for GTP alone was assigned as 100% assembly, and for DMSO alone as 0% assembly. The IC50 was calculated by linear regression of the percent assembly values at the same time point obtained with 0.625, 1.25, 2.5, 5, 10 and 20 μM test agent. In experiments to test for disassembly of preformed tubulin polymer, the test agent was added after 7 minutes of GTP-induced assembly.
# [2] = system: bovine brain tubulin (vinca domain); assay: Inhibition of [3H]vinblastine binding to tubulin (centrifugal gel filtration); conditions: 10 μM radiotracer, 10 μM tubulin; for % Inhibition of [3H]vinblastine binding by 5 μM test agent: 30 min room temperature; for IC50: test agent 0.5-100 μM, Hill fit
# Method: (§1) The new compounds were tested for their abilities to bind at the vinca domain and at the related peptide/depsipeptide site on tubulin using a modification of a centrifugal gel filtration method described by Bai et al., Mol. Pharmacol. 7: 965-76 (1995). In the initial screens, each 0.32 mL reaction mixture contained 5 μM test agent and 10 μM [^3H]vinblastine (specific activity 8.50 Ci/mmol; GE Healthcare Bio-Sciences, Picataway, N.J.) or 10 μM [^3H]dolastatin 10 (specific activity 1.96 Ci/mmol; obtained from the Drug Synthesis and Chemistry Branch of the National Cancer Institute) predissolved in DMSO (final concentration 1% v/v) and 10 μM bovine brain tubulin, all in 0.1 M 2-(4-morpholino)ethanesulfonic acid (Mes), pH 6.9, containing 0.5 mM MgCl2. The mixture was incubated for 30 min at room temperature. Two 0.15 mL aliquots of the reaction mixture were applied to duplicate 2 mL beds of pre-swollen (in Mes, pH 6.9, containing 0.5 mM MgCl2) Sephadex G-50 (superfine) contained in Handee columns (Pierce Biotechnology, Rockford, Ill.). The columns were centrifuged at 800×g for 4 minutes and the protein concentration in the effluent was determined, using the bicinchoninic acid assay. The amount of radiolabeled ligand bound to tubulin was determined using scintillation spectrometry. Each value represents the mean ±SD of four determinations. […] Inhibition was calculated as the percent difference relative to that of the control incubation with DMSO (i.e., without test agent—assigned as 0% inhibition). […] GraphPad Prism was used to fit the resulting data to the Hill equation to determine the IC50 values.
# [3] = system: HeLa human cervical carcinoma cells; assay: High-content analysis of mitotic arrest in HeLa cells; assay type: cell-based; conditions: for Microtubule Density MDEC (minimum detectable effective concentration) / Mitotic Index MDEC (percentage of phosphohistone H3-positive cells) / Nuclear Condensation MDEC (minimum detectable effective concentration) / EC50: 20 hours treatment, average of four experiments ± SD; for EC50: Homo sapiens, read-out: Cell Density EC50; for activity in high-content analysis of mitotic arrest (in words): all endpoints measured
# Method: The effects of tubulysin analogs on mitotic arrest and cellular microtubules were studied. HeLa human cervical carcinoma cells (10,000 per well) were plated in collagen-1 coated 384-well microplates and were treated with vehicle (DMSO) or ten two-fold concentration gradients of test agents within 4-6 hours of seeding. Cells were incubated for 20 hours at 37° C., fixed with formaldehyde, and labeled with 10 μg/mL Hoechst 33342 in Hank's balanced salt solution (HBSS). Cells were permeabilized with 0.5% (w/w) Triton X-100 for 5 min at room temperature and incubated with a primary antibody cocktail consisting of an HBSS solution containing rabbit polyclonal anti-phosphohistone H3 (Ser10, 1:500, Upstate), and mouse monoclonal anti-α-tubulin (1:3000, Sigma), followed by a mixture of FITC-labeled donkey anti-mouse IgG (1:500) and Cy3-labeled donkey anti-rabbit IgG (1:500). Cells were rinsed once with HBSS and stored at 4° C. in HBSS until analysis.
# Microplates were analyzed with an ArrayScanII instrument (Cellomics, Pittsburgh, Pa.) using the Target Activation Bioapplication (Cellomics, Inc.). Within the application, 1,000 individual cells in each well were imaged at three different wavelengths, using an Omega XF93 filter set at excitation/emission wavelengths of 350/461 nm (Hoechst), 494/519 nm (FITC), and 556/573 nm (Cy3). The following parameters were used for data analysis: average nuclear intensity, nuclei per field, average nuclear FITC intensity, and average nuclear Cy3 intensity. A nuclear mask was generated from Hoechst 33342-stained nuclei. Microtubule density and histone H3 phosphorylation were measured in the FITC and Cy3 channel, respectively. Microtubule density was defined as the average green (FITC) pixel intensity in an area defined by the nuclear mask. For determination of mitotic index and nuclear condensation, thresholds for Hoechst 33342 and phosphohistone-H3 intensities were defined as the average Hoechst 33342 or Cy3 intensity plus one standard deviation from twenty-eight vehicle-treated wells placed in the center of the microplate.
# Cells were classified as positive if their average Hoechst 33342 or Cy3 intensity exceeded this threshold. To illustrate visually the effects of test agents on cellular microtubules and mitotic arrest, the identical 384-well plates then were used to acquire higher resolution images of selected wells.
# Asynchronously growing HeLa cells were treated for 20 hours with each compound in collagen-coated 384 well microplates, fixed, and incubated with primary antibodies for tubulin and the mitotic marker protein phosphohistone H3, followed by FITC and Cy3-conjugated secondary antibodies, respectively. Cells were detected by nuclear counterstaining with Hoechst 33342, which also provided information about chromatin condensation and cell density as markers of cell death.
# [4] = system: bovine brain tubulin (peptide/depsipeptide site); assay: Inhibition of [3H]dolastatin 10 binding to tubulin (centrifugal gel filtration); conditions: 10 μM radiotracer, 10 μM tubulin; for % Inhibition of [3H]dolastatin 10 binding by 5 μM test agent: 30 min room temperature
# Method: as §1
# [5] = system: bovine brain tubulin (vinca domain); assay: Inhibition of [3H]vinblastine binding to tubulin (centrifugal gel filtration); conditions: 50 μM test agent
# [6] = Homo sapiens, T98G, 72 h (value in parentheses), ±SD, n = 4, Table IV, read-out: GI50 at (72 h) in T98 glioblastoma cells
# [7] = Homo sapiens, T98G, 96 h, ±SD, n = 4, Table IV, read-out: GI50 at 96 h in T98 glioblastoma cells
"GI50 [1, 6]","GI50 [1, 7]","GI50 ([1]; Homo sapiens, T98G cells, 72 h exposure, Table II, read-out: GI50 in T98G cell, 72 h)","GI50 ([1]; Homo sapiens, T98G cells, 96 h exposure, Table II, read-out: GI50 in T98G cell, 96 h)","GI50 ([1]; Homo sapiens, T98G cells, after 72 hrs exposure, read-out: GI50)",EC50 [3],% Inhibition of [3H]dolastatin 10 binding by 5 μM test agent [4],"IC50 ([4]; test agent 0.5-100 μM, Hill fit)",% Inhibition of [3H]vinblastine binding @50 μM [5],Structure (SMILES),"GI50 ([1]; 72 h (value in parentheses), ±SD, n = 4, Table IV, read-out: GI50 at (72 h) in T98 glioblastoma cells)","GI50 ([1]; 96 h, ±SD, n = 4, Table IV, read-out: GI50 at 96 h in T98 glioblastoma cells)",IC50 (bovine brain tubulin),% Inhibition of [3H]vinblastine binding by 5 μM test agent [2],IC50 [2],Microtubule Density MDEC (minimum detectable effective concentration) [3],Mitotic Index MDEC (percentage of phosphohistone H3-positive cells) [3],Nuclear Condensation MDEC (minimum detectable effective concentration) [3],activity in high-content analysis of mitotic arrest (in words) [3]
–,–,–,–,–,–,–,–,–,"CC[C@H](C)[C@@H]([C@@H](CC(=O)N1CCC[C@H]1[C@H](OC)[C@@H](C)C(=O)N[C@@H](Cc1ccccc1)c1nccs1)OC)N(C)C(=O)[C@@H](NC(=O)[C@H](C(C)C)N(C)C)C(C)C [dolastatin 10, reference compound]",0.1 nM,0.056 ± 0.025 nM,1400 nM,61 ± 1%,4600 ± 500 nM,–,–,–,–
24 nM,12 ± 7 nM,24 ± 9 nM,12 ± 7 nM,~24 nM,11.3 ± 2.7 nM,–,–,–,"CC(=O)O[C@H]1C(=O)[C@@]2(C)[C@H]([C@H](OC(=O)c3ccccc3)[C@]3(O)C[C@H](OC(=O)[C@H](O)[C@@H](NC(=O)c4ccccc4)c4ccccc4)C(C)=C1C3(C)C)[C@]1(OC(C)=O)CO[C@@H]1C[C@@H]2O [paclitaxel, reference compound]",–,–,–,–,–,7.0 ± 2.9 nM,4.2 ± 3.6 nM,10.2 ± 8.2 nM,nanomolar activity
8.6 nM,1 ± 0.6 nM,–,–,–,–,5 ± 6%,–,–,"CC[C@]1(O)C[C@@H]2CN(CCc3c([nH]c4ccccc34)[C@@](C(=O)OC)(c3cc4c(cc3OC)N(C)[C@H]3[C@@](O)(C(=O)OC)[C@H](OC(C)=O)[C@]5(CC)C=CCN6CC[C@]43[C@@H]65)C2)C1 [vinblastine, reference compound]",–,–,1600 nM,–,–,–,–,–,–
–,–,–,–,–,19.7 ± 10.7 nM,21 ± 5%,29000 ± 5000 nM,(@50 μM: 98 ± 1%),"CC[C@]1(O)C[C@H]2CN(CCc3c([nH]c4ccccc34)[C@@](C(=O)OC)(c3cc4c(cc3OC)N(C=O)[C@H]3[C@@](O)(C(=O)OC)[C@H](OC(C)=O)[C@]5(CC)C=CCN6CC[C@]43[C@@H]65)C2)C1 [vincristine, reference compound]",–,–,–,65 ± 2%,4400 ± 700 nM,10.5 ± 10.1 nM,4.1 ± 1.9 nM,2.6 ± 2.0 nM,nanomolar activity
